Laboratory results reported in ChEMBL document CHEMBL5724914, “Linking interpersonal differences in gut microbiota composition and drug biotransformation activity” (2024).

Legend:
[1] = human gut metagenome, 24 h, 2 µM
[2] = (§1) The drug is tested on WLS-027 corresponding to human gut metagenome with ENA study accession number: PRJEB37062 and ENA sample accession number: ERS12561744 for biotransformation under anaerobic condition. The drug concentrations were measured over 9 timepoints collected between 0 and 24 hours of incubation by liquid-chromatography-coupled mass spectrometry (LC–MS); conditions: 2 µM
[3] = human gut metagenome, 24 h, 2 µM; remark: listed apart in the source
[4] = human gut metagenome, 24 h, 2 µM; remark: listed apart in the source
[5] = as §1, with “Z-001” for “WLS-027”, “mouse” for “human”, “ERS12561801” for “ERS12561744”; conditions: 2 µM
[6] = as §1, with “WLS-170” for “WLS-027”, “ERS12561762” for “ERS12561744”; conditions: 2 µM
[7] = human gut metagenome, 24 h, 2 µM; remark: listed apart in the source
[8] = human gut metagenome, 24 h, 2 µM; remark: listed apart in the source
[9] = as §1, with “Z-002” for “WLS-027”, “rabbit” for “human”, “ERS12561802” for “ERS12561744”; conditions: 2 µM
[10] = as §1, with “Z-012” for “WLS-027”, “to” for “to human gut”, “ERS12561812” for “ERS12561744”; conditions: 2 µM
[11] = as §1, with “Z-007” for “WLS-027”, “rat” for “human”, “ERS12561807” for “ERS12561744”; conditions: 2 µM
[12] = human gut metagenome, 24 h, 2 µM; remark: listed apart in the source
[13] = as §1, with “WLS-052” for “WLS-027”, “ERS12561747” for “ERS12561744”; conditions: 2 µM
[14] = human gut metagenome, 24 h, 2 µM; remark: listed apart in the source
[15] = as §1, with “Z-021” for “WLS-027”, “to” for “to human gut”, “ERS12561820” for “ERS12561744”; conditions: 2 µM
[16] = as §1, with “Z-017” for “WLS-027”, “mouse” for “human”, “ERS12561816” for “ERS12561744”; conditions: 2 µM
[17] = human gut metagenome, 24 h, 2 µM; remark: listed apart in the source
[18] = human gut metagenome, 24 h, 2 µM; remark: listed apart in the source
[19] = human gut metagenome, 24 h, 2 µM; remark: listed apart in the source
[20] = as §1, with “WLS-350” for “WLS-027”, “ERS12561789” for “ERS12561744”; conditions: 2 µM
Also: call rule not given here.

Bacterial Biotransformation [1] | Bacterial Biotransformation [2] | Bacterial Biotransformation [3] | Bacterial Biotransformation [4] | Bacterial Biotransformation [5] | Bacterial Biotransformation [6] | Bacterial Biotransformation [7] | Bacterial Biotransformation [8] | Bacterial Biotransformation [9] | Bacterial Biotransformation [10] | Bacterial Biotransformation [11] | Bacterial Biotransformation [12] | Bacterial Biotransformation [13] | Bacterial Biotransformation [14] | Bacterial Biotransformation [15] | Bacterial Biotransformation [16] | Bacterial Biotransformation [17] | Bacterial Biotransformation [18] | Bacterial Biotransformation [19] | Bacterial Biotransformation [20] | SMILES
Compound metabolized | Compound NOT metabolized | Compound metabolized | Compound NOT metabolized | Compound metabolized | Compound metabolized | Compound metabolized | Compound NOT metabolized | Compound metabolized | Compound NOT metabolized | Compound NOT metabolized | Compound metabolized | Compound NOT metabolized | Compound NOT metabolized | Compound metabolized | Compound NOT metabolized | Compound metabolized | Compound NOT metabolized | Compound NOT metabolized | Compound NOT metabolized | OC(CCN1CCCCC1)(c1ccccc1)C1CCCCC1 (stereo not given) [TRIHEXYPHENIDYL]
Compound NOT metabolized | Compound NOT metabolized | Compound NOT metabolized | Compound NOT metabolized | Compound metabolized | Compound NOT metabolized | Compound NOT metabolized | Compound metabolized | Compound metabolized | Compound metabolized | Compound metabolized | Compound NOT metabolized | Compound NOT metabolized | Compound NOT metabolized | Compound NOT metabolized | Compound metabolized | Compound NOT metabolized | Compound metabolized | Compound NOT metabolized | Compound NOT metabolized | Cc1cn([C@H]2C[C@H](N=[N+]=[N-])[C@@H](CO)O2)c(=O)[nH]c1=O [ZIDOVUDINE]
